In patent publication US20070276034A1, “Compounds, compositions and methods for the treatment of synucleinopathies” (priority 2002, published 2007):
Where two headings read alike, the source gives them in different places.

Legend:
Type in all cases: biochemical
[1] = biological target: T1, IAPP fibrils (Homo sapiens, UniProt P10997); assay: Thioflavin T fluorometry - disruption of type 2 diabetes IAPP fibrils; conditions: 25 μM pre-fibrillized IAPP, 37° C., 3 days; for inhibition: read-out: % Inhibition IAPP (result ± S.D.)
T1 construct: purchased Bachem Inc
T1 sequence (P10997 34-70 limits assumed): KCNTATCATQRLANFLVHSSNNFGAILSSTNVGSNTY
Method: In this assay Thioflavin T binds specifically to fibrillar amyloid, and this binding produces a fluorescence enhancement at 485 nm that is directly proportional to the amount of IAPP fibrils present. The higher the fluorescence, the greater the amount of IAPP fibrils present (Naki et al, Lab. Invest. 65:104-110, 1991; Levine III, Protein Sci. 2:404-410, 1993; Amyloid: Int. J. Exp. Clin. Invest. 2:1-6, 1995).
(§1) In this study, 25 μM of pre-fibrillized IAPP (Bachem Inc) was incubated at 37° C. for 3 days either alone, or in the presence of one of the compounds or EDTA (at IAPP:test compound weight ratios of 1:1, 1:0.1, 1:0.01 or 1:0.001). Following 3-days of co-incubation, 50 μl of each incubation mixture was transferred into a 96-well microtiter plate containing 150 μl of distilled water and 50 μl of a Thioflavin T solution (i.e. 500 mM Thioflavin T in 250 mM phosphate buffer, pH 6.8). The fluorescence was read at 485 nm (444 nm excitation wavelength) using an ELISA plate fluorometer after subtraction with buffer alone or compound alone, as blank.

[2] = biological target: T2, Aβ 1-42 fibrils (Homo sapiens, UniProt P05067); assay: Circular dichroism spectroscopy of Aβ 1-42 fibrils; conditions: for disruption of β-sheet structure in Aβ 1-42 fibrils (CD minima at 218 nm): 3 days co-incubation, 25 μM Aβ 1-42 (FIG. 1, FIG. 2); for dose-response of disruption of β-sheet structure of Aβ 1-42 fibrils (CD minima at 218 nm): Aβ:test compound wt/wt ratios of 1:0.1, 1:1 and 1:10 (FIG. 3)
T2 construct: purchased Bachem Inc
Method: Circular dichroism (CD) spectroscopy is a method that can be used to determine the effects of test compounds to disrupt the secondary structure conformation of amyloid fibrils. In one study, as described in this example, circular dichroism spectroscopy was used to determine the effects of different compounds of the invention on β-sheet conformation of Aβ 1-42 fibrils. For this study, Aβ 1-42 (Bachem Inc., Torrance, Calif.) was first dissolved in a 2 mM NaOH solution, maintaining the pH of these solutions above 10. […] Aβ 1-42 was then incubated at 37° C. in the absence or presence of different compounds at an Aβ:test compound wt/wt ratios of 1:0.1, 1:1 and 1:10. After 3 days of incubation, CD spectra were recorded on a Jasco 810 spectropolarimeter (Easton, Md.). All CD spectra were collected with 0.05 cm quartz cells. Wavelength traces were scanned from 190-260 nm at 0.5 nm increments with a bandwidth of 5 nm, at a scan speed of 10 nm/minute, a response time of 32 seconds, and a data pitch of 0.5 nm. The whole system was equilibrated and continuously flushed with nitrogen at 10 ml/minute. […] Ellipticity in degrees was converted to MRE ([Q]; molar residue ellipticity) using the formula [Q]=100•[…]; where Q is the ellipticity in degrees; […]

[3] = biological target: T1, IAPP fibrils; assay: Congo red binding assay with IAPP fibrils; conditions: 3-day incubation
Method: (§2) In the Congo red binding assay the ability of a given test compound to alter amyloid (in this case, IAPP) binding to Congo red is quantified. In this assay, IAPP and test compounds were incubated for 3 days and then vacuum filtered through a 0.2 μm filter. The amount of IAPP retained in the filter was then quantitated following staining of the filter with Congo red. After appropriate washing of the filter, any lowering of the Congo red color on the filter in the presence of the test compound (compared to the Congo red staining of the amyloid protein in the absence of the test compound) was indicative of the test compound's ability to diminish/alter the amount of aggregated and congophilic IAPP.
In the study, the ability of IAPP fibrils to bind Congo red in the absence or presence of increasing amounts of the compounds or EDTA (at IAPP:test compound weight ratios of 1:1, 1:0.1, 1:0.01 or 1:0.001) was determined.

[4] = biological target: T2, Aβ 1-42 fibrils; assay: Thioflavin T fluorometry - disruption of pre-formed Aβ 1-42 Alzheimer's fibrils; conditions: 25 μM pre-fibrillized Aβ 1-42, 37° C., 3 days; for inhibition: read-out: % Inhibition Aβ (result ± S.D.)
From the text: In one study, Thioflavin T fluorometry was used to determine the effects of the compounds, and of EDTA (as a negative control). In this assay Thioflavin T binds specifically to fibrillar amyloid, and this binding produces a fluorescence enhancement at 485 nm that is directly proportional to the amount of amyloid fibrils formed. The higher the fluorescence, the greater the amount of amyloid fibrils formed (Naki et al., Lab. Invest. 65:104-110, 1991; Levine III, Protein Sci. 2:404-410, 1993; Amyloid: Int. J. Exp. Clin. Invest. 2:1-6, 1995).
as §1, with “Aβ 1-42” for “IAPP”, “Aβ:test” for “IAPP:test”

[5] = biological target: T3, monomeric Aβ 1-42 (Homo sapiens, UniProt P05067); assay: SDS-PAGE/Western blot of Aβ 1-42 after incubation with compounds; conditions: 25 μM pre-fibrillized Aβ 1-42, 37° C., 3 days, 0.2 μm filtrate, antibody 6E10
T3 construct: purchased Bachem Inc
Method: In this latter study, triplicate samples of pre-fibrillized Aβ 1-42 (25 μM) was incubated at 37° C. for 3 days, alone or in the presence of the compounds or EDTA. Five micrograms of each sample was then filtered through a 0.2 μm filter. Protein recovered from the filtrate was then loaded, and ran on a 10-20% Tris-Tricine SDS-PAGE, blotted to nitrocellulose and detected using an Aβ-antibody (clone 6E10; Senetek).

[6] = biological target: T2, Aβ 1-42 fibrils; assay: Congo red binding assay with Aβ 1-42 fibrils; conditions: 3-day incubation
Method: as §2, with “a” for “a given”, “Aβ)” for “IAPP)”, “Aβ 1-42” for “IAPP”, “Aβ.” for “IAPP.”
In one study, the ability of Aβ fibrils to bind Congo red in the absence or presence of increasing amounts of the compounds or EDTA (at Aβ:test compound weight ratios of 1:1, 1:0.1, 1:0.01 or 1:0.001) was determined.

[7] = IAPP:test compound wt/wt ratio 1:0.001
[8] = IAPP:test compound wt/wt ratio 1:0.01
[9] = IAPP:test compound wt/wt ratio 1:0.1
[10] = IAPP:test compound wt/wt ratio 1:1
[11] = Aβ:test compound wt/wt ratio 1:0.001
[12] = Aβ:test compound wt/wt ratio 1:0.01
[13] = Aβ:test compound wt/wt ratio 1:0.1
[14] = Aβ:test compound wt/wt ratio 1:1

T2 sequence (P05067 672-713): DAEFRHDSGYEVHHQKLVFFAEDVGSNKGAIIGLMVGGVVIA
T3 sequence (P05067 672-713): as above

Question: With Oc1ccc(CN[C@@H]2CCCC[C@H]2NCc2ccc(O)c(O)c2)cc1O (relative stereo) [Compound 12, N,N′-bis(3,4-dihydroxybenzyl)-trans-1,2-diaminocyclohexane] as the compound, how does the inhibition [1, 7] read?
Answer: 13 ± 10.3%

Question: What about the inhibition [1, 8] of the same compound?
Answer: 37.5 ± 0.76%

Question: What about the inhibition [1, 9] of the same compound?
Answer: 86 ± 0.76%

Question: What about the inhibition [1, 10] of the same compound?
Answer: 99.9 ± 0.19%

Question: And the “disruption of β-sheet structure in Aβ 1-42 fibrils (CD minima at 218 nm)” value [2]?
Answer: marked disruption of β-sheet structure

Question: And the “dose-response of disruption of β-sheet structure of Aβ 1-42 fibrils (CD minima at 218 nm)” value [2]?
Answer: dose-dependent decrease in the minima

Question: What about the “% Inhibition IAPP (result ± S.D.), Congo red binding” value [3, 7] of the same compound?
Answer: 0.0 ± 2.40%

Question: What about the “% Inhibition IAPP (result ± S.D.), Congo red binding” value [3, 8] of the same compound?
Answer: 6.9 ± 2.45%

Question: What about the “% Inhibition IAPP (result ± S.D.), Congo red binding” value [3, 9] of the same compound?
Answer: 8.3 ± 0.85%

Question: What about the “% Inhibition IAPP (result ± S.D.), Congo red binding” value [3, 10] of the same compound?
Answer: 39.8 ± 0.26%

Question: And the inhibition [4, 11]?
Answer: 0%

Question: What about the inhibition [4, 12] of the same compound?
Answer: 10.8 ± 21.9%

Question: What about the inhibition [4, 13] of the same compound?
Answer: 82 ± 1.13%

Question: What about the inhibition [4, 14] of the same compound?
Answer: 99.7 ± 0.17%

Question: Which results are given for CN1C2CCC1C(Cc1ccc(O)c(O)c1)C(=O)C2Cc1ccc(O)c(O)c1 (stereo not drawn) [Compound 19, 2,4-bis(3,4-dihydroxybenzyl)-3-tropinone]?
Answer: % Inhibition IAPP (result ± S.D.) [1, 7]: 16.7 ± 10.20%; % Inhibition IAPP (result ± S.D.) [1, 8]: 51.7 ± 2.98%; % Inhibition IAPP (result ± S.D.) [1, 9]: 94.0 ± 0.10%; % Inhibition IAPP (result ± S.D.) [1, 10]: 100.0 ± 0.24%; detection of Aβ 1-42 monomers (~4 kilodalton band) on Western blot [5]: not detected; % Inhibition IAPP (result ± S.D.), Congo red binding [3, 8]: 6.0 ± 0.78%; % Inhibition IAPP (result ± S.D.), Congo red binding [3, 9]: 21.0 ± 3.70%; % Inhibition IAPP (result ± S.D.), Congo red binding [3, 10]: 49.3 ± 3.97%; % Inhibition Aβ (result ± S.D.) [4, 11]: 10.8 ± 1.38%; % Inhibition Aβ (result ± S.D.) [4, 12]: 46.2 ± 2.98%; % Inhibition Aβ (result ± S.D.) [4, 13]: 91.1 ± 0.66%; % Inhibition Aβ (result ± S.D.) [4, 14]: 99.1 ± 0.56%; % Inhibition Aβ (result ± S.D.), Congo red binding [6, 12]: 7.4 ± 2.20%; % Inhibition Aβ (result ± S.D.), Congo red binding [6, 13]: 22.4 ± 2.19%; % Inhibition Aβ (result ± S.D.), Congo red binding [6, 14]: 48.1 ± 2.00%

Question: For O=C(C=Cc1ccc(O)c(O)c1)NCc1ccc(O)c(O)c1 [Compound 61, 3,4-dihydroxycinnamic acid 3,4-dihydroxybenzylamide], which inhibition [1, 7] is on record?
Answer: 0.5 ± 6.33%

Question: And the inhibition [1, 8]?
Answer: 35.4 ± 5.68%

Question: What about the inhibition [1, 9] of the same compound?
Answer: 83.6 ± 1.27%

Question: What about the inhibition [1, 10] of the same compound?
Answer: 96.8 ± 0.47%

Question: What about the “disruption of β-sheet structure in Aβ 1-42 fibrils (CD minima at 218 nm)” value [2] of the same compound?
Answer: marked disruption of β-sheet structure

Question: And the “dose-response of disruption of β-sheet structure of Aβ 1-42 fibrils (CD minima at 218 nm)” value [2]?
Answer: dose-dependent decrease in the minima

Question: And the “% Inhibition IAPP (result ± S.D.), Congo red binding” value [3, 7]?
Answer: 0.0 ± 3.87%

Question: What about the “% Inhibition IAPP (result ± S.D.), Congo red binding” value [3, 8] of the same compound?
Answer: 4.0 ± 1.78%

Question: What about the “% Inhibition IAPP (result ± S.D.), Congo red binding” value [3, 9] of the same compound?
Answer: 0.0 ± 7.07%

Question: What about the “% Inhibition IAPP (result ± S.D.), Congo red binding” value [3, 10] of the same compound?
Answer: 23.7 ± 0.39%

Question: And the inhibition [4, 11]?
Answer: 26 ± 7.51%

Question: What about the inhibition [4, 12] of the same compound?
Answer: 16.9 ± 1.39%

Question: What about the inhibition [4, 13] of the same compound?
Answer: 80.1 ± 4.76%

Question: And the inhibition [4, 14]?
Answer: 100 ± 0.41%

Question: For O=C(NCCc1ccc(O)c(O)c1)Nc1ccc(O)c(O)c1 [Compound 78, 1-(3,4-dihydroxyphenyl)-3-(3,4-dihydroxyphenethyl)urea], which inhibition [1, 7] is on record?
Answer: 15.3 ± 4.73%

Question: What about the inhibition [1, 8] of the same compound?
Answer: 58.3 ± 1.2%

Question: What about the inhibition [1, 9] of the same compound?
Answer: 92.4 ± 0.27%

Question: And the inhibition [1, 10]?
Answer: 99.5 ± 0.26%

Question: What about the “detection of Aβ 1-42 monomers (~4 kilodalton band) on Western blot” value [5] of the same compound?
Answer: not detected

Question: And the “disruption of β-sheet structure in Aβ 1-42 fibrils (CD minima at 218 nm)” value [2]?
Answer: marked decrease in the minima

Question: And the “% Inhibition IAPP (result ± S.D.), Congo red binding” value [3, 7]?
Answer: 6.6 ± 3.04%

Question: What about the “% Inhibition IAPP (result ± S.D.), Congo red binding” value [3, 8] of the same compound?
Answer: 19.9 ± 2.12%

Question: What about the “% Inhibition IAPP (result ± S.D.), Congo red binding” value [3, 9] of the same compound?
Answer: 16.7 ± 6.80%

Question: And the “% Inhibition IAPP (result ± S.D.), Congo red binding” value [3, 10]?
Answer: 56.3 ± 5.32%

Question: What about the inhibition [4, 11] of the same compound?
Answer: 22.4 ± 5.63%

Question: And the inhibition [4, 12]?
Answer: 57.8 ± 4.63%

Question: What about the inhibition [4, 13] of the same compound?
Answer: 89.7 ± 1.8%

Question: And the inhibition [4, 14]?
Answer: 100 ± 0.78%
